Experimental data as given in US9877916B2, “Methods and compositions for treating aged skin” (ELC Management LLC, priority 2016, dated 2018).

Test system: normal human dermal fibroblasts (NHDF) from a donor
Test: collagen induction assay (Pro-collagen Type I EIA) in aged fibroblasts
Assay type: cell-based
Settings: 72 hr, 18 ug/ml, positive control
Description: Moringa oleifera seed extract was tested at various concentrations for its ability to stimulate collagen production in normal human dermal fibroblasts (“NHDF”) from a donor in a collagen induction assay. Moringa oleifera extract diluted in dimethylsulfoxide (“DMSO”) (% concentrations 0.003125, 0.00625 and 0.0125), Moringa oleifera […] diluted in Dulbecco's Modified Eagle Medium supplemented with 10% Hyclone® bovine calf serum and 1% Cellgro® penicillin-streptomycin solution (“DMEM”) (% concentrations of 0.0000625, 0.000125, 0.00025, 0.0005), positive control (L-ascorbic acid, 18 ug/ml), and DMEM alone were tested. Cell Growth and Maintenance. Aged NHDF were obtained from ZenBio. Fibroblasts were cultured in DMEM 1× (Life Tech) supplemented with 10% bovine calf serum (Hyclone) and 1% PenStrep solution (Cellgro). Cells were regularly maintained; subcultured as needed. Normal human dermal fibroblasts (NHDF, aged) were plated on a 96-well plate in supplemented DMEM (as indicated above). […] Alamar Blue results were determined using a plate reader. Data was analyzed using the SoftMax Pro software and Excel. Collagen production was assessed using the Pro-collagen Type I collagen EIA Kit (Takara) as per manufacturer's protocol, exactly as described. Plate was read using the Gemini M2E plate reader and results were compared. […]

O=C1O[C@H]([C@@H](O)CO)C(O)=C1O [L-ascorbic acid (+Control), L-ascorbic acid]
% increase in collagen induction: +16%
